Reference: article PMC10102062, “Effects of DPTQ, a novel positive allosteric modulator of the dopamine D1 receptor, on spontaneous eye blink rate and spatial working memory in the nonhuman primate” (Psychopharmacology, 2023)

Tests used:
[1] = target: D2 receptor (Homo sapiens, UniProt P14416); parameters: method as in previously published data; details: at 10 µM, functional and binding studies; ref previously published data; cited from earlier work
[2] = system: rhesus monkeys; parameters: method as in Bruns et al., [2018]; details: smaller response than SKF82958; ref Bruns et al., [2018]; cited from earlier work
[3] = system: pCREB and the AMPA receptor pGluR1; parameters: method as in Bruns et al. [2018]; details: hD1 mouse; similar to SKF82958; ref Bruns et al. [2018]; cited from earlier work
[4] = system: rhesus monkeys; assay: Spontaneous eye blink rate, cumulative dosing; format: in vivo, rhesus monkey
Description: Eleven 5–6-year-old, male rhesus monkeys (Chengdu Ping, An Animal Breeding and Research Base, Sichuan Province, China) with an average weight of 4.83 kg were included in the study. The animals were randomly divided into three groups, DPTQ higher cumulative dose group (n = 4); DPTQ lower cumulative dose group (n = 3); and vehicle (20% Captisol (CyDex Pharmaceuticals, Inc., KS) in NaPO4 buffer) group (n = 4). The D1 agonist SKF82958 was included as a positive control; the results for this compound (not shown here) were recently published together with data for a different D1PAM (DETQ, see Bruns et al. [2018]). The D1 selective antagonist SCH39166 hydrobromide (Cat No.: 2299, Batch No.: 3A/129719) was purchased from Tocris, MN, and was prepared in Millipore pure water with the injection volume 0.2 ml/kg. The D1 antagonist was dosed 15 min before vehicle or DPTQ (n = 4 animals per group).
Spontaneous eye blinking rate was measured during observational experiments conducted in a specially constructed monkey chair (Mason et al. [2019]). A U-shaped neck plate that helped to fixate the orientation of the head was used to facilitate observation of eye blink rate response. A compact video camera (Panasonic/wv-cp480/CH) on a tripod was positioned in front of the seated monkey. Two camera images were combined by video collector (Color QUAD system) and transferred to the EthoVision software (Noldus, Leesburg, VA) on the computer for on-line viewing and recording.
Two weeks before testing, monkeys were trained daily to sit in the monkey chair for two 2-h periods with food reward. During post-training test sessions conducted between 9:00 am and 4:30 pm every day, each monkey was studied for nine consecutive 15-min components. Each 15-min block consisted of a 10-min habituation period followed by a 5-min period during which eye blinking was counted. […] Observers blind to the treatment conditions later scored each 5-min videotaped session. An eye blink was defined as a visible, rapid opening and closing of the eyelid. Two observers independently confirmed the measurement with reliability > 90%.
The effects of different D1 ligands on spontaneous eye blink rate were studied by a cumulative dosing procedure (Jutikiewicz and Bergman 2004). Active compound or vehicle (Captisol 20% w/v NaPO4 buffer) was administered after obtaining two baseline eye blink recordings. The ligand was given in random order to different monkeys of each group as described above. To study dose response and time course, incremental doses of DPTQ were administrated at the end of 15-min components of each test session.
DPTQ (free base, see Hao et al. [2019]) was supplied by Eli Lilly Company. Captisol (Lot No.: NC-04A-05034) was prepared as follows: Captisol 20% w/v NaPO4 buffer 25 mM, pH 8. The injection volume for DPTQ was 0.5 ml/kg IM. DPTQ at 0.1 mg/kg, 0.5 mg/kg, and 1 mg/kg were dosed as clear solution, while the 5 mg/kg and 10 mg/kg doses were formulated as fine suspensions. The above vehicle solution was stored at 4℃ in a refrigerator and restored to room temperature before use. When preparing DPTQ fresh daily, a portion of the vehicle (20% Captisol) was added to the compound and stirred to wet, followed by addition of the remainder of the vehicle and mixing until the solution became homogeneous. The suspension was then sonicated on an ice bath for 40 min to reduce particle size. Animals were dosed while in the chair.
Results for each monkey were expressed as the rate of eye blinking (blinks per minute) averaged over each 5-min testing epoch. The effects of vehicle and D1 PAM on eye blinking were averaged for each group of monkeys and expressed as mean ± SE. The effects of DPTQ and vehicle were analyzed with two-way ANOVA (D1 PAM and time) followed by Bonferroni post hoc test (GraphPad Prism, San Diego CA).

[5] = system: adult human volunteers; parameters: method as in Wilbraham et al. [2021]; details: clinical studies; ref Wilbraham et al. [2021]; cited from earlier work

D2 receptor, sequence (P14416 whole entry): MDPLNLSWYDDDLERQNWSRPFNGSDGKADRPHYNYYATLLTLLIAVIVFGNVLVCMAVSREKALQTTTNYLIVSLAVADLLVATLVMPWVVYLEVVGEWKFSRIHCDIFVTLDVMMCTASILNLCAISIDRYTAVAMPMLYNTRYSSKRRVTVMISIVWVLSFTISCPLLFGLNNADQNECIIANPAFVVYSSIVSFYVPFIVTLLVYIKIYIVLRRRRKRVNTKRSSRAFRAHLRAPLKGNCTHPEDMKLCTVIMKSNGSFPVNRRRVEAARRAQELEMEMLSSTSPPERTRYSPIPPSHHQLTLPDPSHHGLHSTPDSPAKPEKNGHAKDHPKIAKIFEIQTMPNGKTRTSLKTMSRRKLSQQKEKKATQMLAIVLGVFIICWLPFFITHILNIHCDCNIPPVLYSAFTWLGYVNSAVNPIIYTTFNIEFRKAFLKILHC

| Structure (SMILES) | Activity at the D2 receptor [1] | Spontaneous eye blink rate [2] | Brain levels of pCREB and pGluR1 [3] | Duration of eye blink reduction/sedation ([4]; 0.03 mg/kg IM alone) | Spontaneous eye blink rate, antagonist alone ([4]; 0.03 mg/kg IM alone) | Visual observation of sedation ([4]; 0.03 mg/kg IM alone) | Effect on DPTQ-induced increase in spontaneous eye blink rate ([4]; SCH39166 pretreatment, high cumulative doses of DPTQ, n = 4/group) | Oral movement with tongue protrusion [5] |
| --- | --- | --- | --- | --- | --- | --- | --- | --- |
| C[C@H]1c2cccc(C(C)(C)O)c2C[C@H](CO)N1C(=O)Cc1c(Cl)cccc1Cl [DETQ] | no activity | enhanced spontaneous eye blink rate | enhances |  |  |  |  |  |
| CN1CCc2cc(Cl)c(O)cc2[C@H]2c3ccccc3CC[C@@H]21 [SCH39166, reference compound] |  |  |  | about 15 min | brief reduction in eye blink rate | slightly sedated | blocks |  |
| C[C@H]1c2cccc(CCC(C)(C)O)c2C[C@H](CO)N1C(=O)Cc1c(Cl)cccc1Cl [mevidalen, 2-(2,6-dichlorophenyl)-1-((1S,3R)-5-(3-hydroxy-3-methylbutyl)-3-(hydroxymethyl)-1-methyl-3,4-dihydroisoquinolin-2(1H)-yl)ethan-1-one] | no activity |  |  |  |  |  |  | not reported |
